Assay results: ChEMBL document CHEMBL5321295, “Targeted Degradation of Alpha-Synuclein by Autophagosome-Anchoring Chimera Peptides” (J Med Chem, 2023)
The source made the active and inactive calls. The calls are words filed in the database; no cut-off is given here.

Assays:
HEK-293T [1] = experiment: Downregulation of MYL12A expression in HEK293T cells at 100 uM incubated for 24 hrs by proteomic profiling analysis; assay type: functional, cell-based; settings: Homo sapiens
Mus musculus [2] = experiment: Neuroprotective activity in MPTP-treated C57BL/6 mouse assessed as increase in dopaminergic neurons of substantia nigra pars compacta at 50 mg/kg/day, iv treated for 5 days by immunofluorescent staining of tyrosine hydroxylase based microscopy; assay type: functional, organism-based; settings: time 5.0 day
HEK-293T [3] = experiment: Downregulation of MARCKS expression in HEK293T cells at 100 uM incubated for 24 hrs by proteomic profiling analysis; assay type: functional, cell-based; settings: Homo sapiens
HEK-293T [4] = experiment: Downregulation of DYNC1I2 expression in HEK293T cells at 100 uM incubated for 24 hrs by proteomic profiling analysis; assay type: functional, cell-based; settings: Homo sapiens
Mus musculus [5] = experiment: Neuroprotective activity in MPTP-induced cognitive impairment in C57BL/6 mouse assessed as decrease in mean speed in navigation trial phase at 50 mg/kg/day, iv treated for 5 days measured after 5 to 8 days days by morris water maze test; assay type: functional, organism-based; settings: time 10-13 day
[6] = Toxicity in C57BL/6 mouse assessed as change in CKMB level at 50 to 200 mg/kg/day treated for 5 days; assay type: organism-based; settings: in vivo, 120 h, dose 50-200 mg/kg/day, time 5 day
Mus musculus [7] = experiment: Neuroprotective activity in MPTP-induced cognitive impairment in C57BL/6 mouse assessed as increase in time spent in target quadrant in probe trial phase at 50 mg/kg/day, iv treated for 5 days measured after 5 to 8 days days by morris water maze test; assay type: functional, organism-based; settings: time 10-13 day
[8] = molecular target: T1, Microtubule-associated protein 1 light chain 3 beta (Homo sapiens, UniProt Q9GZQ8); experiment: (§1) Induction of LC3B-mediated autophagy flux in HEK293T cells overexpressing alpha-synuclein (unknown origin) cotransfected with adenovirus-packaged plasmid encoding mCherry-EGFP-fused LC3B assessed as increase in number of autolysosomes incubated for 4 hrs by confocal laser scanning microscopy; assay type: cell-based; settings: dose <= 100.0 µM
[9] = molecular target: T1, Microtubule-associated protein 1 light chain 3 beta; experiment: Induction of LC3B-mediated autophagy flux in HEK293T cells overexpressing alpha-synuclein (unknown origin) assessed as increase in LAMP1 level upto 100 uM incubated for 4 hrs by immunoblot analysis; assay type: cell-based
HEK-293T [10] = experiment: Downregulation of DLST expression in HEK293T cells at 100 uM incubated for 24 hrs by proteomic profiling analysis; assay type: functional, cell-based; settings: Homo sapiens
SH-SY5Y [11] = experiment: Cytoprotective activity in human SH-SY5Y cells transfected with alpha-synuclein (unknown origin) assessed as necrotic cells at 100 uM measured after 24 hrs by […] based flow cytometry (reference value: 14.8 %); assay type: functional
[12] = Toxicity in C57BL/6 mouse assessed as dyspnea at 50 to 200 mg/kg/day treated for 5 days; assay type: organism-based; settings: in vivo, 120 h, dose 50-200 mg/kg/day, time 5 day
[13] = Drug localization in HEK293T cells overexpressing mCherry-fused alpha-synuclein (unknown origin) assessed as colocalization of autophagosomes at 50 uM incubated for 2 hrs by LyTG staining based confocal laser scanning microscopy; assay type: ADME, cell-based; settings: human, hek-293t
[14] = Drug localization in HEK293T cells overexpressing mCherry-fused alpha-synuclein (unknown origin) assessed as colocalization of lysosomes at 50 uM incubated for 2 hrs by LyTG staining based confocal laser scanning microscopy; assay type: ADME, cell-based; settings: human, hek-293t
HEK-293T [15] = experiment: Downregulation of EIF4H expression in HEK293T cells at 100 uM incubated for 24 hrs by proteomic profiling analysis; assay type: functional, cell-based; settings: Homo sapiens
Mus musculus [16] = experiment: Downregulation of alpha-synuclein level in substantia nigra pars compacta of MPTP-treated C57BL/6 mouse at 50 mg/kg/day, iv treated for 5 days by immunoblot analysis; assay type: functional, organism-based; settings: time 5.0 day
[17] = Toxicity in C57BL/6 mouse assessed as change in creatine kinase level at 50 to 200 mg/kg/day treated for 5 days; assay type: organism-based; settings: in vivo, 120 h, dose 50-200 mg/kg/day, time 5 day
Alpha-synuclein [18] = molecular target: T2, Alpha-synuclein (Homo sapiens, UniProt P37840); experiment: Binding affinity to biotinylated recombinant alpha-synuclein (unknown origin) assessed as dissociation constant by BLI assay
Alpha-synuclein [19] = molecular target: T2, Alpha-synuclein; experiment: Binding affinity to alpha-synuclein (unknown origin) overexpressed in HEK293T cells at 50 to 100 uM incubated for 4 hrs by co-IP assay; assay type: cell-based; settings: dose 50-100 µM
[20] = Drug localization in HEK293T cells overexpressing mCherry-fused alpha-synuclein (unknown origin) assessed as puncta formation of alpha-synuclein at 50 uM incubated for 2 hrs by LyTG staining based confocal laser scanning microscopy; assay type: ADME, cell-based; settings: human, hek-293t
Alpha-synuclein [21] = molecular target: T2, Alpha-synuclein; experiment: Induction of alpha-synuclein (unknown origin) degradation overexpressed in HEK293T cells with LC3B knockdown at 50 uM incubated for 24 hrs by immunoblot analysis; assay type: cell-based
Alpha-synuclein [22] = molecular target: T2, Alpha-synuclein; experiment: Binding affinity to alpha-synuclein (unknown origin) overexpressed in HEK293T cells assessed as shift in denaturation at 50 uM incubated for 4 hrs followed by heating at 40 to 75 degreeC for 3 mins by CETSA assay; assay type: cell-based; settings: time 243.0 min
[23] = Toxicity in C57BL/6 mouse assessed as lethargy at 50 to 200 mg/kg/day treated for 5 days; assay type: organism-based; settings: in vivo, 120 h, dose 50-200 mg/kg/day, time 5 day
Alpha-synuclein [24] = molecular target: T2, Alpha-synuclein; experiment: Induction of alpha-synuclein (unknown origin) degradation overexpressed in HEK293T cells infected with adenovirus expressing mCherry-EGFP-LC3B at 50 uM incubated for 3 hrs by immunoblot analysis; assay type: cell-based
[25] = molecular target: T1, Microtubule-associated protein 1 light chain 3 beta; experiment: as §1, with “density” for “number”, “lysosomes upto 100 uM” for “autolysosomes”, “by LyTR staining based” for “by”; assay type: cell-based
Mus musculus [26] = experiment: Downregulation of total aggregated protein level in substantia nigra pars compacta of MPTP-treated C57BL/6 mouse at 50 mg/kg/day, iv treated for 5 days by ThS staining based analysis; assay type: functional, organism-based; settings: time 5.0 day
Mus musculus [27] = experiment: Neuroprotective activity in MPTP-induced anxiety-like status in C57BL/6 mouse assessed as increase in distance travelled in zone centers of mouse track at 50 mg/kg/day, iv treated for 5 days measured after 4 days by open field test; assay type: functional, organism-based; settings: time 9.0 day
SH-SY5Y [28] = experiment: Cytoprotective activity in human SH-SY5Y cells transfected with alpha-synuclein (unknown origin) assessed as decrease in ROS level at 100 uM measured after 24 hrs by DCFH-DA staining based flow cytometry (reference value: 76 %); assay type: functional; design: scale not given: the % may be the effect or the level left
[29] = molecular target: T1, Microtubule-associated protein 1 light chain 3 beta; experiment: Induction of LC3B-mediated autophagy flux in HEK293T cells overexpressing alpha-synuclein (unknown origin) cotransfected with adenovirus-packaged plasmid encoding mCherry-EGFP-fused LC3B assessed as increase in number of autophagosomes incubated for 4 hrs by confocal laser scanning microscopy; assay type: cell-based; settings: dose <= 100.0 µM
HEK-293T [30] = experiment: Downregulation of AGPS expression in HEK293T cells at 100 uM incubated for 24 hrs by proteomic profiling analysis; assay type: functional, cell-based; settings: Homo sapiens
Mus musculus [31] = experiment: Neuroprotective activity in MPTP-induced cognitive impairment in C57BL/6 mouse assessed as increase in distance travelled in target quadrant in probe trial phase at 50 mg/kg/day, iv treated for 5 days measured after 5 to 8 days days by morris water maze test; assay type: functional, organism-based; settings: time 10-13 day
[32] = Toxicity in C57BL/6 mouse assessed as change in creatinine level at 50 to 200 mg/kg/day treated for 5 days; assay type: organism-based; settings: in vivo, 120 h, dose 50-200 mg/kg/day, time 5 day
Mus musculus [33] = experiment: Neuroprotective activity in MPTP-induced anxiety-like status in C57BL/6 mouse assessed as increase in time spent in zone centers of mouse track at 50 mg/kg/day, iv treated for 5 days measured after 4 days by open field test; assay type: functional, organism-based; settings: time 9.0 day
HEK-293T [34] = experiment: Downregulation of BANF1 expression in HEK293T cells at 100 uM incubated for 24 hrs by proteomic profiling analysis; assay type: functional, cell-based; settings: Homo sapiens

CC(C)C[C@H](NC(=O)[C@H](Cc1c[nH]cn1)NC(=O)[C@@H](NC(=O)[C@H](Cc1c[nH]c2ccccc12)NC(=O)[C@H](CC(=O)O)NC(=O)[C@H](CC(=O)O)NC(=O)[C@H](CC(=O)O)NC(=O)CNC(=O)CNC(=O)[C@H](CO)NC(=O)[C@H](CO)NC(=O)CNC(=O)[C@H](CO)NC(=O)CNC(=O)[C@H](CCCNC(=N)N)NC(=O)[C@@H](NC(=O)[C@H](CCCCN)NC(=O)[C@H](CO)NC(=O)CNC(=O)[C@@H](NC(=O)[C@H](Cc1ccc(O)cc1)NC(=O)[C@H](CC(C)C)NC(=O)[C@@H](NC(=O)CN)C(C)C)C(C)C)[C@H](C)O)[C@@H](C)O)C(=O)N[C@@H](CO)C(=O)N[C@@H](CO)C(=O)N[C@@H](Cc1ccc(O)cc1)C(=O)NCC(=O)N[C@@H](CCCNC(=N)N)C(=O)N[C@@H](CCCCN)C(=O)N[C@@H](CCCCN)C(=O)N[C@@H](CCCNC(=N)N)C(=O)N[C@@H](CCCNC(=N)N)C(=O)N[C@@H](CCC(N)=O)C(=O)N[C@@H](CCCNC(=N)N)C(=O)N[C@@H](CCCNC(=N)N)C(=O)N[C@@H](CCCNC(=N)N)C(=O)O
Activity (HEK-293T [1]): Active | Activity (Mus musculus [2]): Active | Activity (HEK-293T [3]): Active | Activity (HEK-293T [4]): Active | Activity (Mus musculus [5]): Active | Activity [6]: Non-Toxic | Activity (Mus musculus [7]): Active | Activity [8]: Dose-Dependent Effect | Activity [9]: Active | Activity (HEK-293T [10]): Active | Activity (SH-SY5Y [11]): 4.07% | Activity [12]: Non-Toxic | Drug uptake [13]: Active | Drug uptake [14]: Active | Activity (HEK-293T [15]): Active | Activity (Mus musculus [16]): Active | Activity [17]: Non-Toxic | Kd (Alpha-synuclein [18]): 8.83 µM | Activity (Alpha-synuclein [19]): Active | Drug uptake [20]: Active | Activity (Alpha-synuclein [21]): Active | Activity (Alpha-synuclein [22]): Active | Activity [23]: Non-Toxic | Activity (Alpha-synuclein [24]): Active | Activity [25]: Active | Activity (Mus musculus [26]): Active | Activity (Mus musculus [27]): Active | Activity (SH-SY5Y [28]): 26.7% | Activity [29]: Dose-Dependent Effect | Activity (HEK-293T [30]): Active | Activity (Mus musculus [31]): Active | Activity [32]: Non-Toxic | Activity (Mus musculus [33]): Active | Activity (HEK-293T [34]): Active
